# Measured values from patent publication US20200024278A1, “COMPOSITION COMPRISING ANTIBIOTIC COMPOUND AND AN HETEROCYCLIC COMPOUND AND THEIR USE IN PREVENTING OR TREATING BACTERIAL INFECTIONS” (MUTABILIS, priority 2016, published 2020).
# Read-outs that look alike come from different tables or passages of the source.
# Columns and labels:
# Test in all cases: MIC, broth microdilution (CLSI), substance alone or ATB combined with compound at 4 or 8 μg/mL
# [1] = test system: ECO 190317; assay type: cell-based, E. coli; settings: ECO 190317
# Description: (§1) Compounds of the present invention were assessed against genotyped bacterial strains alone or in combination with an antibacterial. In the assays, MICs of said compounds or combination of antibiotics with fixed concentrations of said compounds (4 or 8 μg/mL) were determined by the broth microdilution method according to the Clinical Laboratory Standards Institute (CLSI-M7-A7). Briefly, compounds alone according to the invention were prepared in DMSO and spotted (2 μL each) on sterile polystyrene plates (Corning, 3788). Combinations of compounds and antibiotics dilutions were prepared in DMSO and spotted (1 μL each) on sterile polystyrene plates (Corning, 3788). Log phase bacterial suspensions were adjusted to a final density of 5·10^5 CFU/mL in cation-adjusted Mueller-Hinton broth (ca-MHB; Becton-Dickinson and Company) and added to each well (98 μL). Assays including Fosfomycin were supplemented with 25 μg/ml of Glucose-6-phosphate. Microplates were incubated for 16-20 h at 35° C. in ambient air. The MIC of the compounds was defined as the lowest concentration of said compounds that prevented bacterial growth as read by visual inspection. The MIC of ATB at each compound concentration was defined as the lowest concentration of ATB that prevented bacterial growth as read by visual inspection.
# [2] = test system: PAE 105250; assay type: cell-based, P. aeruginosa; settings: PAE 105250; for MIC: Pseudomonas aeruginosa
# Description: as §1
# [3] = test system: SPN 49619; assay type: cell-based, S. pneumoniae; settings: SPN 49619; for MIC: Streptococcus pneumoniae
# Description: as §1
# [4] = test system: SAU 29213; assay type: cell-based, S. aureus; settings: SAU 29213
# Description: as §1
# [5] = test system: ECO UFR39; assay type: cell-based, E. coli; settings: ECO UFR39; with Example 13 at 8 μg/ml
# Description: as §1
# [6] = test system: ECL P99; assay type: cell-based, E. cloacae; settings: ECL P99
# Description: as §1
# [7] = test system: PAE UFR48; assay type: cell-based, P. aeruginosa; settings: PAE UFR48
# Description: as §1
# [8] = test system: PAE UFR90; assay type: cell-based, P. aeruginosa; settings: PAE UFR90
# Description: as §1
# [9] = antibiotic alone, read-out: MIC ATB alone
smiles,measurement,setting,value
"C[C@H]1[C@H](NC(=O)/C(=N\OC(C)(C)C(=O)O)c2csc(N)n2)C(=O)N1S(=O)(=O)O [ATM, Aztreonam, reference compound]",MIC,"[1]; Escherichia coli, antibiotic alone, read-out: MIC ATB alone",128 µg/mL
same,MIC,[2]; [9],8 µg/mL
same,MIC,"[2]; substance alone, read-out: MIC",8 µg/mL
same,MIC,[3]; [9],> 64 µg/mL
same,MIC,"[3]; substance alone, read-out: MIC",> 64 µg/mL
CO[C@H]1/C=C/O[C@@]2(C)Oc3c(C)c(O)c4c(O)c(c(/C=N/N5CCN(C)CC5)c(O)c4c3C2=O)NC(=O)/C(C)=C\C=C\[C@H](C)[C@H](O)[C@@H](C)[C@@H](O)[C@@H](C)[C@H](OC(C)=O)[C@@H]1C [RIF],MIC ATB alone,[4]; RIF alone,0.0078 µg/mL
same,MIC ATB alone,[4]; antibiotic alone,0.0078 µg/mL
same,MIC ATB combined with Example 1 @8 μg/ml,[4]; with Example 1 @8 μg/ml,0.0078 µg/mL
same,MIC ATB combined with Example 9 @4 μg/ml,[4],0.002 µg/mL
same,MIC ATB alone,[3]; RIF alone,0.031 µg/mL
same,MIC ATB alone,[3]; antibiotic alone,0.031 µg/mL
same,MIC ATB combined with Example 1 @8 μg/ml,[3]; with Example 1 @8 μg/ml,0.063 µg/mL
same,MIC ATB combined with Example 9 @4 μg/ml,[3]; with Example 9 @4 μg/ml,0.00024 µg/mL
CC[C@H]1OC(=O)[C@H](C)[C@@H](O[C@H]2C[C@@](C)(OC)[C@@H](O)[C@H](C)O2)[C@H](C)[C@@H](O[C@@H]2O[C@H](C)C[C@H](N(C)C)[C@H]2O)[C@](C)(O)C[C@@H](C)C(=O)[C@H](C)[C@@H](O)[C@]1(C)O [ERY],MIC ATB alone,[4]; ERY alone,1 µg/mL
same,MIC ATB alone,[4]; antibiotic alone,1 µg/mL
same,MIC ATB combined with Example 1 @8 μg/ml,[4]; with Example 1 @8 μg/ml,0.25 µg/mL
same,MIC ATB combined with Example 9 @4 μg/ml,[4],<=0.0020 μg/mL
same,MIC ATB alone,[3]; ERY alone,0.063 µg/mL
same,MIC ATB alone,[3]; antibiotic alone,0.063 µg/mL
same,MIC ATB combined with Example 1 @8 μg/ml,[3]; with Example 1 @8 μg/ml,0.063 µg/mL
same,MIC ATB combined with Example 9 @4 μg/ml,[3]; with Example 9 @4 μg/ml,<0.0020 µg/mL
CO/N=C(\C(=O)N[C@@H]1C(=O)N2C(C(=O)O)=C(COC(C)=O)CS[C@H]12)c1csc(N)n1 [CTX],MIC ATB combined with Example 1 @8 μg/ml,[1]; with Example 1 @8 μg/ml,<0.031 µg/mL
same,MIC ATB combined with Example 1 @8 μg/ml,[1]; with Example 1 at 8 μg/ml,<0.031 µg/mL
same,MIC ATB combined with Example 13 @8 μg/ml,[1]; with Example 13 at 8 μg/ml,<0.031 µg/mL
same,MIC ATB combined with Example 13 @8 μg/ml,[5],<0.031 µg/mL
same,MIC ATB combined with Example 1 @8 μg/ml,[6]; with Example 1 @8 μg/ml,<0.031 µg/mL
same,MIC ATB combined with Example 1 @8 μg/ml,[6]; with Example 1 at 8 μg/ml,<0.031 µg/mL
same,MIC ATB combined with Example 7 @8 μgml,[6]; with Example 7 at 8 μg/ml,0.063 µg/mL
same,MIC ATB combined with Example 13 @8 μg/ml,[6]; with Example 13 at 8 μg/ml,1 µg/mL
same,MIC ATB combined with Example 15 @4 μgml,[6]; with Example 15 at 4 μg/ml,<=0.031 μg/mL
same,MIC ATB combined with Example 1 @8 μg/ml,[2]; with Example 1 @8 μg/ml,<0.031 µg/mL
same,MIC ATB combined with Example 1 @8 μg/ml,[2]; with Example 1 at 8 μg/ml,<0.031 µg/mL
same,MIC ATB combined with Example 7 @8 μgml,[2]; with Example 7 at 8 μg/ml,32 µg/mL
same,MIC ATB combined with Example 11 @8 μg/ml,[2]; with Example 11 at 8 μg/ml,32 µg/mL
same,MIC ATB combined with Example 12 @8 μg/ml,[2]; with Example 12 at 8 μg/ml,>32 µg/mL
same,MIC ATB combined with Example 14 @8 μg/ml,[2]; with Example 14 at 8 μg/ml,>32 µg/mL
same,MIC ATB combined with Example 15 @4 μgml,[2]; with Example 15 at 4 μg/ml,32 µg/mL
same,MIC ATB combined with Example 16 @4 μg/ml,[2]; with Example 16 at 4 μg/ml,>32 µg/mL
same,MIC ATB combined with Example 1 @8 μg/ml,[7]; with Example 1 @8 μg/ml,<0.031 µg/mL
same,MIC ATB combined with Example 1 @8 μg/ml,[7]; with Example 1 at 8 μg/ml,<0.031 µg/mL
same,MIC ATB combined with Example 7 @8 μgml,[7]; with Example 7 at 8 μg/ml,>32 µg/mL
same,MIC ATB combined with Example 11 @8 μg/ml,[7]; with Example 11 at 8 μg/ml,>32 µg/mL
same,MIC ATB combined with Example 12 @8 μg/ml,[7]; with Example 12 at 8 μg/ml,>32 µg/mL
same,MIC ATB combined with Example 14 @8 μg/ml,[7]; with Example 14 at 8 μg/ml,>32 µg/mL
same,MIC ATB combined with Example 15 @4 μgml,[7]; with Example 15 at 4 μg/ml,>32 µg/mL
same,MIC ATB combined with Example 16 @4 μg/ml,[7]; with Example 16 at 4 μg/ml,>32 µg/mL
same,MIC ATB combined with Example 1 @8 μg/ml,[8]; with Example 1 @8 μg/ml,<0.031 µg/mL
same,MIC ATB combined with Example 1 @8 μg/ml,[8]; with Example 1 at 8 μg/ml,<0.031 µg/mL
same,MIC ATB combined with Example 7 @8 μgml,[8]; with Example 7 at 8 μg/ml,>32 µg/mL
same,MIC ATB combined with Example 11 @8 μg/ml,[8]; with Example 11 at 8 μg/ml,>32 µg/mL
same,MIC ATB combined with Example 14 @8 μg/ml,[8]; with Example 14 at 8 μg/ml,>32 µg/mL
same,MIC ATB combined with Example 15 @4 μgml,[8]; with Example 15 at 4 μg/ml,>32 µg/mL
same,MIC ATB combined with Example 16 @4 μg/ml,[8]; with Example 16 at 4 μg/ml,>32 µg/mL
same,MIC ATB alone,[4]; antibiotic alone,2 µg/mL
same,MIC ATB combined with Example 1 @8 μg/ml,[4]; with Example 1 @8 μg/ml,2 µg/mL
same,MIC ATB combined with Example 1 @8 μg/ml,[4]; with Example 1 at 8 μg/ml,2 µg/mL
same,MIC ATB combined with Example 7 @8 μgml,[4]; with Example 7 at 8 μg/ml,1 µg/mL
same,MIC ATB combined with Example 11 @8 μg/ml,[4]; with Example 11 at 8 μg/ml,<=0.031 μg/mL
same,MIC ATB combined with Example 13 @8 μg/ml,[4]; with Example 13 at 8 μg/ml,1 µg/mL
same,MIC ATB combined with Example 15 @4 μgml,[4]; with Example 15 at 4 μg/ml,0.5 µg/mL
same,MIC ATB alone,[3]; antibiotic alone,0.063 µg/mL
same,MIC ATB combined with Example 1 @8 μg/ml,[3]; with Example 1 @8 μg/ml,<=0.031 μg/mL
same,MIC ATB combined with Example 1 @8 μg/ml,[3]; with Example 1 at 8 μg/ml,<=0.031 μg/mL
same,MIC ATB combined with Example 7 @8 μgml,[3]; with Example 7 at 8 μg/ml,<=0.031 μg/mL
same,MIC ATB combined with Example 9 @4 μg/ml,[3]; with Example 9 @4 μg/ml,<=0.031 μg/mL
same,MIC ATB combined with Example 9 @4 μg/ml,[3]; with Example 9 at 4 μg/ml,<=0.031 μg/mL
same,MIC ATB combined with Example 11 @8 μg/ml,[3]; with Example 11 at 8 μg/ml,<=0.031 μg/mL
same,MIC ATB combined with Example 12 @8 μg/ml,[3]; with Example 12 at 8 μg/ml,<=0.031 μg/mL
same,MIC ATB combined with Example 13 @8 μg/ml,[3]; with Example 13 at 8 μg/ml,<=0.031 μg/mL
same,MIC ATB combined with Example 14 @8 μg/ml,[3]; with Example 14 at 8 μg/ml,<=0.031 μg/mL
same,MIC ATB combined with Example 15 @4 μgml,[3]; with Example 15 at 4 μg/ml,<=0.031 μg/mL
same,MIC ATB combined with Example 16 @4 μg/ml,[3]; with Example 16 at 4 μg/ml,<=0.031 μg/mL
CN[C@H](CC(C)C)C(=O)N[C@H]1C(=O)N[C@@H](CC(N)=O)C(=O)N[C@H]2C(=O)N[C@H]3C(=O)N[C@H](C(=O)N[C@H](C(=O)O)c4cc(O)cc(O)c4-c4cc3ccc4O)[C@H](O)c3ccc(c(Cl)c3)Oc3cc2cc(c3O[C@@H]2O[C@H](CO)[C@@H](O)[C@H](O)[C@H]2O[C@H]2C[C@](C)(N)[C@H](O)[C@H](C)O2)Oc2ccc(cc2Cl)[C@H]1O [VAN],MIC ATB alone,[4]; antibiotic alone,1 µg/mL
same,MIC ATB combined with Example 1 @8 μg/ml,[4]; with Example 1 @8 μg/ml,1 µg/mL
same,MIC ATB combined with Example 9 @4 μg/ml,[4],<0.0039 µg/mL
same,MIC ATB alone,[4]; VAN alone,1 µg/mL
same,MIC ATB alone,[3]; antibiotic alone,0.25 µg/mL
same,MIC ATB combined with Example 1 @8 μg/ml,[3]; with Example 1 @8 μg/ml,0.25 µg/mL
same,MIC ATB combined with Example 9 @4 μg/ml,[3]; with Example 9 @4 μg/ml,<0.0039 µg/mL
same,MIC ATB alone,[3]; VAN alone,0.25 µg/mL
CC(=O)NC[C@H]1CN(c2ccc(N3CCOCC3)c(F)c2)C(=O)O1 [LZD],MIC ATB alone,[4]; LZD alone,4 µg/mL
same,MIC ATB alone,[4]; antibiotic alone,4 µg/mL
same,MIC ATB combined with Example 1 @8 μg/ml,[4]; with Example 1 @8 μg/ml,2 µg/mL
same,MIC ATB combined with Example 9 @4 μg/ml,[4],<0.0078 µg/mL
same,MIC ATB alone,[3]; LZD alone,1 µg/mL
same,MIC ATB alone,[3]; antibiotic alone,1 µg/mL
same,MIC ATB combined with Example 1 @8 μg/ml,[3]; with Example 1 @8 μg/ml,1 µg/mL
same,MIC ATB combined with Example 9 @4 μg/ml,[3]; with Example 9 @4 μg/ml,<=0.0078 μg/mL
CCC[C@@H]1C[C@@H](C(=O)N[C@@H]([C@H]2O[C@H](SC)[C@H](O)[C@@H](O)[C@H]2O)[C@H](C)Cl)N(C)C1 [CLI],MIC ATB alone,[3]; CLI alone,0.125 µg/mL
same,MIC ATB alone,[3]; antibiotic alone,0.125 µg/mL
same,MIC ATB combined with Example 1 @8 μg/ml,[3]; with Example 1 @8 μg/ml,0.063 µg/mL
same,MIC ATB combined with Example 9 @4 μg/ml,[3]; with Example 9 @4 μg/ml,0.0039 µg/mL
